From patent publication US6706664B1, “Benzoxazole compounds, process for the preparation thereof and herbicides” (UBE Industries, Ltd., priority 1999, dated 2004)

Tests used:
Set-up in all cases: key: 0: normal development; 1: Less damaged; 2: Slightly damaged; 3: Moderately damaged; 4: Severely damaged; 5: All killed
[1] = test system: monochoria; experiment: Herbicidal test for paddy field; assay type: in vivo, Monochoria vaginalis; conditions: paddy field pot, 500 g/ha dropwise at 1.5 leaf stage of barnyardgrass, 3 weeks, rank vs non-treated
Summary of the method: (§1)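 Scores ran from 0 (normal development) to 5 (all killed) against untreated pots, judged after 3 weeks in a glasshouse averaging 25° C. Compound, as wettable powder diluted in water with 0.05% surfactant, was applied dropwise into 3 cm-deep paddy water at 500 g/ha. Application was at the 1.5-leaf stage of barnyardgrass.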

[2] = test system: barnyardgrass; experiment: Herbicidal test for paddy field; assay type: in vivo, Echinochloa crusgalli; conditions: paddy field pot, 500 g/ha dropwise at 1.5 leaf stage of barnyardgrass, 3 weeks, rank vs non-treated
Summary of the method: as §1

[3] = test system: annual bluegrass; experiment: Soil treatment test for upland field; assay type: in vivo, Poa annua; conditions: 500 g/ha, glass house 25° C., 3 weeks
Summary of the method: (§2)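 Herbicidal effect graded on a 0–5 scale (0 normal development, 5 all killed) after 3 weeks in a glasshouse at about 25° C. Compound applied as a soil-surface spray at 500 g/ha right after sowing into Ube alluvial soil; spray water contained 0.05% surfactant.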

[4] = test system: velvetleaf; experiment: Foliar spread test for upland field; assay type: in vivo, Abutilon theophrasti; conditions: foliar spray 500 ppm, 3 weeks, rank vs non-treated
Summary of the method: (§3)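 Wettable powders at 500 ppm, with 0.5% surfactant, were sprayed uniformly over plants raised for roughly 2 weeks in glasshouse pots of volcanic ash soil. Herbicidal damage rated on a 0–5 scale (5 = all killed) after a further 3 weeks at an average 25 °C.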

[5] = test system: common lambsquartes; experiment: Soil treatment test for upland field; assay type: in vivo, Chenopodium album; conditions: 500 g/ha, glass house 25° C., 3 weeks
Summary of the method: as §2

[6] = test system: morning glory; experiment: Foliar spread test for upland field; assay type: in vivo, Ipomoea spps.; conditions: foliar spray 500 ppm, 3 weeks, rank vs non-treated
Summary of the method: as §3

[7] = test system: livid amaranth; experiment: Foliar spread test for upland field; assay type: in vivo, Amaranthus lividus; conditions: foliar spray 500 ppm, 3 weeks, rank vs non-treated
Summary of the method: as §3

[8] = test system: wheat; experiment: Soil treatment test for upland field; assay type: in vivo; conditions: 500 g/ha, glass house 25° C., 3 weeks
Summary of the method: as §2

[9] = test system: cotton; experiment: Soil treatment test for upland field; assay type: in vivo; conditions: 500 g/ha, glass house 25° C., 3 weeks
Summary of the method: as §2

[10] = test system: corn; experiment: Soil treatment test for upland field; assay type: in vivo; conditions: 500 g/ha, glass house 25° C., 3 weeks
Summary of the method: as §2

[11] = test system: sugar beat; experiment: Soil treatment test for upland field; assay type: in vivo; conditions: 500 g/ha, glass house 25° C., 3 weeks
Summary of the method: as §2

[12] = test system: soybean; experiment: Soil treatment test for upland field; assay type: in vivo; conditions: 500 g/ha, glass house 25° C., 3 weeks
Summary of the method: as §2

[13] = test system: solgum; experiment: Soil treatment test for upland field; assay type: in vivo; conditions: 500 g/ha, glass house 25° C., 3 weeks
Summary of the method: as §2

[14] = test system: blackgrass; experiment: Soil treatment test for upland field; assay type: in vivo, Alopecurus aegualis; conditions: 500 g/ha, glass house 25° C., 3 weeks
Summary of the method: as §2

[15] = test system: green foxtail; experiment: Soil treatment test for upland field; assay type: in vivo, Setaria viridis; conditions: 500 g/ha, glass house 25° C., 3 weeks
Summary of the method: as §2

[16] = test system: common lambsquartes; experiment: Foliar spread test for upland field; assay type: in vivo, Chenopodium album; conditions: foliar spray 500 ppm, 3 weeks, rank vs non-treated
Summary of the method: as §3

[17] = test system: blackgrass; experiment: Foliar spread test for upland field; assay type: in vivo, Alopecurus aegualis; conditions: foliar spray 500 ppm, 3 weeks, rank vs non-treated
Summary of the method: as §3

[18] = test system: velvetleaf; experiment: Soil treatment test for upland field; assay type: in vivo, Abutilon theophrasti; conditions: 500 g/ha, glass house 25° C., 3 weeks
Summary of the method: as §2

[19] = test system: annual bluegrass; experiment: Foliar spread test for upland field; assay type: in vivo, Poa annua; conditions: foliar spray 500 ppm, 3 weeks, rank vs non-treated
Summary of the method: as §3

Compound	Effect Monochoria [1]	Effect Barnyardgrass [2]	Effects Annual bluegrass [3]	Effects Velvetleaf [4]	Effects Common lambsquarters [5]	Effects Morning glory [6]	Effects Livid amaranth [7]	Effects Wheat [8]	Effects Cotton [9]	Effects Corn [10]	Effects Sugar beat [11]	Effects Soybean [12]	Effects Solgum [13]	Effects Blackgrass [14]	Effects Green foxtail [15]	Effects Common lambsquarters [16]	Effects Blackgrass [17]	Effects Velvetleaf [18]	Effects Annual bluegrass [19]
CC(Oc1ccc(F)c(C(F)(F)F)c1)c1nc2cc(Cl)ccc2o1 (stereo not shown) [Compound 137]	3	3	5	1	2	2	4	1	0	1	2	0	1	3	5	–	–	–	–
CCC(Oc1cccc(C(F)(F)F)c1)c1nc2cc(Br)ccc2o1 (stereo not shown) [Compound 166]	5	3	5	2	2	4	4	0	0	0	5	0	0	3	5	4	1	–	–
CCCC(Oc1cccc(C(F)(F)F)c1)c1nc2cc(F)c(Cl)cc2o1 (stereo not shown) [Compound 497]	4	4	4	3	5	–	5	1	1	1	5	1	1	–	5	2	–	3	2
CCC(Oc1cccc(C#N)c1)c1nc2cc(F)c(Cl)cc2o1 (stereo not shown) [Compound 498]	2	3	5	2	5	–	4	1	1	0	5	1	1	4	5	–	–	3	2
CCC(Oc1cccc(OC(F)(F)F)c1)c1nc2cc(C#N)c(C#N)cc2o1 (stereo not shown) [Compound 527]	4	4	5	3	5	–	5	1	0	2	5	1	1	4	5	5	2	5	5
CCC(Oc1ccc(F)c(C(F)(F)F)c1)c1nc2cc(F)ccc2o1 (stereo not shown) [Compound 119, 1-(5-fluorobenzoxazol-2-yl)-1-(4-fluoro-3-(trifluoromethyl)phenoxy)propane]	4	3	5	2	1	3	4	0	0	0	5	0	0	3	5	4	–	–	–
CCCC(Oc1ccc(F)c(C(F)(F)F)c1)c1nc2cc(F)c(Cl)cc2o1 (stereo not shown) [Compound 494]	5	5	5	2	4	2	5	1	0	1	5	0	1	5	5	4	–	3	–
CCCC(Oc1cccc(C(F)(F)F)c1)c1nc2cc(C#N)c(C#N)cc2o1 (stereo not shown) [Compound 317]	5	3	5	3	5	–	5	1	0	2	5	1	1	5	5	5	2	5	5
